Measurements taken from patent US9079974B2, “GH-RH analogs with potent agonistic effects” (The University of Miami, priority 2011, dated 2015).
Entries after “also recorded” stand apart in the source; their conditions may differ. Each block holds one compound with its values, some of them ahead of it. Square brackets hold non-standard residues; d marks the D form. Peptide text beside a SMILES is read from it. * marks the point of attachment. Phe(F5) = N[C@@H](Cc1c(F)c(F)c(F)c(F)c1F)C(=O)O; Desaminotyrosyl = O=C(CCc1ccc(O)cc1)*; NMeY = CN[C@@H](Cc1ccc(O)cc1)C(=O)O; Agmatine = N=C(N)NCCCCN*; Nle = CCCC[C@H](N)C(=O)O; Orn = NCCC[C@H](N)C(=O)O; Abu = CC[C@H](N)C(=O)O; GABA = NCCCC(=O)O

Tests used:
GH release [1] = assay: In vivo GH release after subcutaneous administration; settings: rat, s.c.
Protocol: Blood samples are taken from the jugular vein; 5, 15 and 30 minutes or only 15 and 30 minutes after the injection. The blood samples are centrifuged, plasma is removed and the GH level is measured by ELISA. The results are summarized in terms of potency in Table 9.

[2] = test system: superfused rat pituitary cells; assay: GH release in superfused rat pituitary cell system; type: cell-based; settings: 1 nM
Protocol: Growth hormone releasing is assayed by using a superfused rat pituitary cell system as described in S. Vigh and A. V. Schally, Peptides 5, Suppl: 241-347, 1984, which is incorporated by reference herein. The new synthetic peptide analogs of hGH-RH P20356 and JI-38 as control are administered for 3 minutes (1 mL perfusate) at 1 nM concentration as shown below. Fractions of 1 ml are collected and the GH content in each is determined by ELISA. […] Effect of hGH-RH analogs (1 nM) on the GH release in superfused rat pituitary cell system
Pituitary cells from 2 male rates were used for each channel of the superfusion system. The cells were exposed to 3-min pulses of the new GHRH agonists or to JI-38 as standard every 30 min. Outflowing samples of each channel (1 ml) were collected every 3 min, and GH levels were determined by ELISA.

GH release [3] = assay: In vivo GH release after intravenous administration; settings: rat, i.v.
Protocol: The blood samples are centrifuged, plasma is removed and the GH level is measured by ELISA.

GHRH receptor [4] = target: T1, GHRH receptor (Homo sapiens, UniProt Q02643); assay: GHRH receptor binding, 125I-labeled JV-1-42 ligand competition, human pituitary membrane homogenates (Table 5)
T1 construct: Normal human pituitaries were purchased from the National Hormone and Peptide Program; tissue National Hormone and Peptide Program (A. F. Parlow); host or cells: normal human pituitary, membrane fraction
T1 sequence (Q02643 23-423): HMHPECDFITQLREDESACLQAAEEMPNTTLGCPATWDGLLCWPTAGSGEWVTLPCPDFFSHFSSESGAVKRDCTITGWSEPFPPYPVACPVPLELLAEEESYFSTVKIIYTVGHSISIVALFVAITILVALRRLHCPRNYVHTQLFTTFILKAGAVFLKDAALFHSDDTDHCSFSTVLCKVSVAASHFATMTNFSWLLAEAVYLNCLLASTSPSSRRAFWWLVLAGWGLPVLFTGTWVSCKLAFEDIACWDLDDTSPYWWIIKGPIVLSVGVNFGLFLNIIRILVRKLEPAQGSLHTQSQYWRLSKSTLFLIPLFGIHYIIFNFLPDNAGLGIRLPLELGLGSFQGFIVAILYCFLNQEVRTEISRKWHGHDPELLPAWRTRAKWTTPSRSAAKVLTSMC
Protocol: (§1) Receptor binding assay Ligand competition assay with ^125I-labeled [His^1, Nle^27]hGH-RH(1-32)-NH2 was used to determine the binding affinities of the novel hGH-RH agonists to membrane receptors of rat anterior pituitary cells. The methods used have been described in detail (Halmos G, et al. Receptor 3: 87-97, 1993), here by incorporated by reference. Briefly, radioidonated [His^1, Nle^27]hGH-RH(1-32)-NH2 is prepared by the chloramines-T method. […] IC50 is the dose of the tested peptides causing 50% inhibition of specific binding to receptors.
Preparation of human pituitary membrane fraction and receptor binding of GHRH agonists were performed as previously described, by using a sensitive in vitro ligand competition assay based on binding of ^125I-labeled JV-1-42 to human pituitary membrane homogenates. Normal human pituitaries were purchased from the National Hormone and Peptide Program (A. F. Parlow, Los Angeles, County Harbor-UCLA Medical Center, Torrance, Calif.). Briefly, in competitive binding analysis, ^125I-labeled JV-1-42 (˜0.2 nM) was displaced by GHRH agonists at 10^−6 to 10^−12 M.
The final binding affinities were expressed as IC50 values and were calculated by using the LIGAND PC computerized curve-fitting program of Munson and Rodbard as modified by McPherson.

GHRH receptor [5] = target: T1, GHRH receptor; assay: GHRH receptor binding, 125I-labeled JV-1-42 ligand competition, human pituitary membrane homogenates (Table 7); settings: 125I-labeled JV-1-42, human pituitary membranes
Protocol: Preparation of human pituitary membrane fraction and receptor binding of GHRH agonists were performed as previously described, by using a sensitive in vitro ligand competition assay based on binding of ^125I-labeled JV-1-42 to human pituitary membrane homogenates. Normal human pituitaries were purchased from the National Hormone and Peptide Program (A. F. Parlow, Los Angeles, County Harbor-UCLA Medical Center, Torrance, Calif.).

GHRH receptor [6] = target: T1, GHRH receptor; assay: GHRH receptor binding, [His1,125I-Tyr10,Nle27]hGHRH(1-32)NH2 ligand competition, human pituitary membrane homogenates (Table 6); settings: relative to GHRH(1-29) = 1
Protocol: as §1
Preparation of human pituitary membrane fraction and receptor binding of GHRH agonists were performed as previously described, by using a sensitive in vitro ligand competition assay based on binding of ^125I-labeled [His^1, Nle^27]hGHRH(1-32)NH2 to human pituitary membrane homogenates. Normal human pituitaries were purchased from the National Hormone and Peptide Program (A. F. Parlow, Los Angeles, County Harbor—UCLA Medical Center, Torrance, Calif.).

[7] = given subcutaneously twice a day; cited from earlier work
[8] = target: dipeptidylpeptidase IV (DPP-IV) (Homo sapiens, UniProt P27487); settings: cited from earlier work
Chain of dipeptidylpeptidase IV (DPP-IV) (P27487 39-766 limits assumed, species assumed): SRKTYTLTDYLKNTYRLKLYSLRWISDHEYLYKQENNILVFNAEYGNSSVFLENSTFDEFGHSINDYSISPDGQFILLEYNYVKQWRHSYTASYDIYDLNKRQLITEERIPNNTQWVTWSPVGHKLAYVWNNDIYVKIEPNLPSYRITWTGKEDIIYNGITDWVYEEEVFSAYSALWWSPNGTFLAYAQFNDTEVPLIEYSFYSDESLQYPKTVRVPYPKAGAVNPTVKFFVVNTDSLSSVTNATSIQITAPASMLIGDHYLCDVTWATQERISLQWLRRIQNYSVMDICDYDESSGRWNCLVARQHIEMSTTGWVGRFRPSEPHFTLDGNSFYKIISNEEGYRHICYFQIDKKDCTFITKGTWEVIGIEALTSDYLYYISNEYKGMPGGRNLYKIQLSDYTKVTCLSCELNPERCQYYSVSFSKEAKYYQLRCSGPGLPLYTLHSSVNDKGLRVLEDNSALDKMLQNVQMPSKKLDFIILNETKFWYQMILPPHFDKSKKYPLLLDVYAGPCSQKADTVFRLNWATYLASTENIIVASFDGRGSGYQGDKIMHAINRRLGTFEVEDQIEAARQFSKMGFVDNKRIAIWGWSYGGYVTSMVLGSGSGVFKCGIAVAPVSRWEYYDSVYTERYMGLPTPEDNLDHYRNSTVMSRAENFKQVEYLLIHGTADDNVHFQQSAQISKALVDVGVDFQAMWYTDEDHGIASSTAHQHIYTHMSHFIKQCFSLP

Compound: CCCC[C@H](NC(=O)[C@@H](NC(=O)[C@H](CC(=O)O)NC(=O)[C@H](CCC(N)=O)NC(=O)[C@H](CC(C)C)NC(=O)[C@H](CC(C)C)NC(=O)[C@H](CCCN)NC(=O)[C@H](CCCNC(=N)N)NC(=O)[C@H](C)NC(=O)[C@H](CO)NC(=O)[C@H](CC(C)C)NC(=O)[C@H](CCC(N)=O)NC(=O)[C@H](CC)NC(=O)[C@H](CC(C)C)NC(=O)[C@@H](NC(=O)[C@H](CCCN)NC(=O)[C@H](CCCNC(=N)N)NC(=O)[C@H](Cc1ccc(O)cc1)NC(=O)[C@H](CO)NC(=O)[C@H](CCC(N)=O)NC(=O)[C@@H](NC(=O)[C@H](Cc1ccccc1)NC(=O)[C@@H](NC(=O)[C@H](C)NC(=O)[C@H](CC(=O)O)NC(=O)[C@H](C)NC(=O)[C@H](Cc1ccc(O)cc1)NC)[C@@H](C)CC)[C@@H](C)O)C(C)C)[C@@H](C)CC)C(=O)N[C@@H](CC(=O)O)C(=O)NCCCCNC(=N)N [Peptide P-20356, [N—Me-Tyr^1, Gln^8, Orn^12, Abu^15, Orn^21, Nle^27, Asp^28, Agm^29]hGH-RH(1-29)] (H-[NMeY]ADAIFTQSYR[Orn]VL[Abu]QLSAR[Orn]LLQDI[Nle]D-Agmatine)
GH response after subcutaneous administration (in words) (GH release [1]): unusually high responses; also recorded: especially greater growth hormone levels than hGH-RH or JI-38
times more potent in vitro than JI-38 (GH release) [2]: about 3 times

Compound: hGH-RH(1-29)NH2 [GHRH (1-29), reference compound]
Relative affinity (Binding potency) vs GHRH (GHRH receptor [6]): 1
Relative affinity (Binding potency) vs GHRH (GHRH receptor [4]; relative to GHRH(1-29) = 1): 1
share of GH-deficient children in whom linear growth was promoted [7]: approximately 50%

Compound: hGH-RH: native human GH-RH, 44 amino acids with an amidated carboxyl terminus
degradation in plasma via DPP-IV cleavage between residues 2 and 3 [8]: rapidly degraded

Second part, led by results:

IC50 (GHRH receptor [4]; 125I-labeled JV-1-42, human pituitary membranes): 0.07 nM
IC50 (GHRH receptor [5]): 0.33 nM
Compound: CCCC[C@H](NC(=O)[C@@H](NC(=O)[C@H](CC(=O)O)NC(=O)[C@H](CCC(N)=O)NC(=O)[C@H](CC(C)C)NC(=O)[C@H](CC(C)C)NC(=O)[C@H](CCCN)NC(=O)[C@H](CCCNC(=N)N)NC(=O)[C@H](C)NC(=O)[C@H](CO)NC(=O)[C@H](CC(C)C)NC(=O)[C@H](CCC(N)=O)NC(=O)[C@H](CC)NC(=O)[C@H](CC(C)C)NC(=O)[C@@H](NC(=O)[C@H](CCCN)NC(=O)[C@H](CCCNC(=N)N)NC(=O)[C@H](Cc1ccc(O)cc1)NC(=O)[C@H](CO)NC(=O)[C@H](CC(N)=O)NC(=O)[C@@H](NC(=O)[C@H](Cc1c(F)c(F)c(F)c(F)c1F)NC(=O)[C@@H](NC(=O)[C@H](C)NC(=O)[C@H](CC(=O)O)NC(=O)[C@@H](C)NC(=O)CCc1ccc(O)cc1)[C@@H](C)CC)[C@@H](C)O)C(C)C)[C@@H](C)CC)C(=O)N[C@@H](CO)C(=O)N[C@@H](CCCNC(=N)N)C(=O)NCCCC(N)=O [Peptide P-25502, [Dat^1, D-Ala^2, Fpa5^6, Orn^12, Abu^15, Orn^21, Nle^27, Gab^30]hGH-RH(1-30)NH2] (Desaminotyrosyl-[dA]DAI[Phe(F5)]TNSYR[Orn]VL[Abu]QLSAR[Orn]LLQDI[Nle]SR[GABA]-NH2)
GH response after intravenous administration (in words) (GH release [3]): most potent
GH response after subcutaneous administration (in words) (GH release [1]): unusually high responses; also recorded: especially greater growth hormone levels than hGH-RH or JI-38

IC50 (GHRH receptor [5]): 0.16 nM
Compound: CCCC[C@H](NC(=O)[C@@H](NC(=O)[C@H](CC(=O)O)NC(=O)[C@H](CCC(N)=O)NC(=O)[C@H](CC(C)C)NC(=O)[C@H](CC(C)C)NC(=O)[C@H](CCCN)NC(=O)[C@H](CCCNC(=N)N)NC(=O)[C@H](C)NC(=O)[C@H](CO)NC(=O)[C@H](CC(C)C)NC(=O)[C@H](CCC(N)=O)NC(=O)[C@H](CC)NC(=O)[C@H](CC(C)C)NC(=O)[C@@H](NC(=O)[C@H](CCCN)NC(=O)[C@H](CCCNC(=N)N)NC(=O)[C@H](Cc1ccc(O)cc1)NC(=O)[C@H](CO)NC(=O)[C@H](CCC(N)=O)NC(=O)[C@@H](NC(=O)[C@H](Cc1ccccc1)NC(=O)[C@@H](NC(=O)[C@H](C)NC(=O)[C@H](CC(=O)O)NC(=O)[C@@H](C)NC(=O)[C@H](Cc1ccc(O)cc1)NC)[C@@H](C)CC)[C@@H](C)O)C(C)C)[C@@H](C)CC)C(=O)N[C@@H](CC(=O)O)C(=O)N[C@@H](CCCNC(=N)N)C(=O)NC [Peptide P-27403, [N—Me-Tyr^1, D-Ala^2, Gln^8, Orn^12, Abu^15, Orn^21, Nle^27, Asp^28]hGH-RH(1-29)NH—CH3] (H-[NMeY][dA]DAIFTQSYR[Orn]VL[Abu]QLSAR[Orn]LLQDI[Nle]DR-NHMe)
GH response after intravenous administration (in words) (GH release [3]): most potent
GH response after subcutaneous administration (in words) (GH release [1]): unusually high responses; also recorded: especially greater growth hormone levels than hGH-RH or JI-38
